Measurements from US8378117B2 (priority 2005, dated 2013).

Key:
CB1 receptor = molecular target: T1, CB1 receptor (Homo sapiens, UniProt P21554); assay: Binding assay for CB1 agonists or inverse agonists (SK-N-MC membranes, [3H]-CP-55,940); settings: for inhibition at 0.25 µM: read-out: CB1 receptor binding percent inhibition, test concentration 0.25 μM (footnote 8); for inhibition at 1 µM: read-out: CB1 receptor binding percent inhibition, test concentration 1 μM (footnote 1)
T1 construct: expressed in transfected cells
T1 sequence (P21554 whole entry): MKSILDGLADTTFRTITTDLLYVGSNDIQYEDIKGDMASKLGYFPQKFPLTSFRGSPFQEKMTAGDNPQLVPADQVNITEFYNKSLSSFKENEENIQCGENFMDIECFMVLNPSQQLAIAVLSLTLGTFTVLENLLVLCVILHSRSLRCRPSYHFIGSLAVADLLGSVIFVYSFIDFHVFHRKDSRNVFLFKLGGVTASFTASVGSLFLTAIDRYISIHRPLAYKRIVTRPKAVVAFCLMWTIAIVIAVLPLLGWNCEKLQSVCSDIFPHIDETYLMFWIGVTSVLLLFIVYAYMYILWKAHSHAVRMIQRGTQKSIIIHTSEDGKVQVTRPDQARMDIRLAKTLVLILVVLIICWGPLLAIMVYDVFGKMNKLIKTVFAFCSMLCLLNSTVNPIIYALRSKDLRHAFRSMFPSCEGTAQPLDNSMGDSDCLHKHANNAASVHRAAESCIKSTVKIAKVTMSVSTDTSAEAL
How it was run: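 Membranes from SK-N-MC cells stably expressing human CB1 incubated with compound and [3H]-CP-55,940 ([…]) for 90 min at 30° C in Tris-HCl pH 7.5, MgCl2, EDTA, fatty-acid-free BSA. Non-specific binding defined with 10 uM WIN 55,212; filtration, scintillation count; IC50 by linear regression.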

CB2 receptor = molecular target: T2, CB2 receptor (Homo sapiens, UniProt P34972); assay: Binding assay for CB2 agonists or inverse agonists (SK-N-MC membranes, [3H]-CP-55,940); settings: for IC50: Cannabinoid CB2 Receptor Binding IC50, calculated by linear regression from percent inhibition at various test concentrations; for inhibition at 0.25 µM: test concentration 0.25 μM (footnote 8), read-out: CB2 receptor binding percent inhibition; for CB2 receptor binding percent inhibition: test concentration not stated
T2 construct: expressed in transfected cells
T2 sequence (P34972 whole entry): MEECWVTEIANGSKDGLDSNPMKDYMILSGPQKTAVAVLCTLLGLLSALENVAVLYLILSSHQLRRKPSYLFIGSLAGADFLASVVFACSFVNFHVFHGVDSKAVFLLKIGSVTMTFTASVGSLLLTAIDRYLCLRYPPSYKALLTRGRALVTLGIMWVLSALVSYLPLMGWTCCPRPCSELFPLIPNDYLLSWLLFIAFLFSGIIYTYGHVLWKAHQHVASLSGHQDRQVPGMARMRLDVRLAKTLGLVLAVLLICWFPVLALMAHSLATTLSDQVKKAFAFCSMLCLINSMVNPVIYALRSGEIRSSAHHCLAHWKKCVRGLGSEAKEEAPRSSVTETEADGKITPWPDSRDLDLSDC
How it was run: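 Membranes from SK-N-MC cells stably expressing human CB2 were incubated with radioligand and test compounds for 90 min at 30 °C in Tris-HCl buffer, pH 7.5, with MgCl2, EDTA and fatty-acid-free BSA. Filter-bound radioactivity was counted; IC50 was derived by linear regression of percent inhibition.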

[1] = value shown is an average percent inhibition (footnote 5), concentration not given

COC(=O)[C@@H](Cc1ccc(O)cc1)NC(=O)c1nn(C2CCCCC2)c2c1CCCCC2Cc1cccc(F)c1 (stereo partly drawn) [Cpd 82, (2R)-2-{[1-cyclohexyl-8-(3-fluoro-benzyl)-1,4,5,6,7,8-hexahydro-cycloheptapyrazole-3-carbonyl]-amino}-3-(4-hydroxy-phenyl)-propionic acid methyl ester]
IC50 (CB1 receptor; calculated by linear regression from percent inhibition at various test concentrations, read-out: Cannabinoid CB1 Receptor Binding IC50): 1000 nM
CB1 receptor binding average percent inhibition (CB1 receptor; [1]): 46%
IC50 (CB2 receptor): 60 nM
CB2 receptor binding average percent inhibition (CB2 receptor; [1]): 88%

O=C(NCC(F)(F)F)c1nn(Cc2ccccc2)c2c1CCCCC2c1ccccc1 (centres unmarked) [Cpd 86, 1-benzyl-8-phenyl-1,4,5,6,7,8-hexahydro-cycloheptapyrazole-3-carboxylic acid (2,2,2-trifluoro-ethyl)-amide]
inhibition at 0.25 µM (CB1 receptor): 0%
inhibition at 0.25 µM (CB2 receptor): 22%

COC(=O)[C@@H](Cc1ccc(F)cc1)NC(=O)c1nn(Cc2ccccc2)c2c1CCCCC2c1ccccc1 (stereo partly drawn) [Cpd 87, (2R)-2-[(1-benzyl-8-phenyl-1,4,5,6,7,8-hexahydro-cycloheptapyrazole-3-carbonyl)-amino]-3-(4-fluoro-phenyl)-propionic acid methyl ester]
inhibition at 0.25 µM (CB1 receptor): 4%
inhibition at 0.25 µM (CB2 receptor): 0%

CCOC(=O)[C@H]1C2C=CC(C2)[C@H]1NC(=O)c1nn(C2CCCCC2)c2c1CCCCC2Cc1ccc(F)cc1 (stereo partly drawn) [Cpd 88, (2S,3R)-3-{[1-cyclohexyl-8-(4-fluoro-benzyl)-1,4,5,6,7,8-hexahydro-cycloheptapyrazole-3-carbonyl]-amino}-bicyclo[2.2.1]hept-5-ene-2-carboxylic acid ethyl ester]
inhibition at 1 µM (CB1 receptor): 2%
CB2 receptor binding percent inhibition (CB2 receptor): 32%

O=C(NN1CCOCC1)c1nn(C2CCCCC2)c2c1CCCCC2Cc1ccc(F)cc1 (centres unmarked) [Cpd 89, 1-cyclohexyl-8-(4-fluoro-benzyl)-1,4,5,6,7,8-hexahydro-cycloheptapyrazole-3-carboxylic acid morpholin-4-ylamide]
inhibition at 1 µM (CB1 receptor): 11%
CB2 receptor binding percent inhibition (CB2 receptor): 0%

O=C(NN1CCOCC1)c1nn(C2CCCCC2)c2c1CCCCC2Cc1cccc(F)c1 (centres unmarked) [Cpd 90, 1-cyclohexyl-8-(3-fluoro-benzyl)-1,4,5,6,7,8-hexahydro-cycloheptapyrazole-3-carboxylic acid morpholin-4-ylamide]
inhibition at 1 µM (CB1 receptor): 1%
CB2 receptor binding percent inhibition (CB2 receptor): 2%

COC(=O)[C@@H](Cc1ccc(O)cc1)NC(=O)c1nn(-c2ccc(F)cc2F)c2c1CCCCC2Cc1cccc(F)c1 (stereo partly drawn) [Cpd 95, (2R)-2-{[1-(2,4-difluoro-phenyl)-8-(3-fluoro-benzyl)-1,4,5,6,7,8-hexahydro-cycloheptapyrazole-3-carbonyl]-amino}-3-(4-hydroxy-phenyl)-propionic acid methyl ester]
inhibition at 1 µM (CB1 receptor): 36%
CB2 receptor binding percent inhibition (CB2 receptor): 35%

CC12CCC(C1)C(C)(C)[C@H]2NC(=O)c1nn(-c2ccc(F)cc2F)c2c1CCCCC2Cc1ccc(F)cc1 (stereo partly drawn) [Cpd 97, 1-(2,4-difluoro-phenyl)-8-(4-fluoro-benzyl)-1,4,5,6,7,8-hexahydro-cycloheptapyrazole-3-carboxylic acid [(2S)-1,3,3-trimethyl-bicyclo[2.2.1]hept-2-yl]-amide]
inhibition at 1 µM (CB1 receptor): 38%
IC50 (CB2 receptor): 300 nM
inhibition at 1 µM (CB2 receptor; read-out: CB2 receptor binding percent inhibition, test concentration 1 μM (footnote 1)): 71%

COC(=O)[C@@H](Cc1ccc(O)cc1)NC(=O)c1nn(-c2ccc(F)cc2F)c2c1CCCCC2Cc1ccc(F)cc1 (stereo partly drawn) [Cpd 98, (2R)-2-{[1-(2,4-difluoro-phenyl)-8-(4-fluoro-benzyl)-1,4,5,6,7,8-hexahydro-cycloheptapyrazole-3-carbonyl]-amino}-3-(4-hydroxy-phenyl)-propionic acid methyl ester]
inhibition at 1 µM (CB1 receptor): 51%
CB2 receptor binding percent inhibition (CB2 receptor): 43%

O=C(N[C@@H]1c2ccccc2C[C@@H]1O)c1nn(-c2ccc(F)cc2F)c2c1CCCCC2Cc1cccc(F)c1 (stereo partly drawn) [Cpd 100, 1-(2,4-difluoro-phenyl)-8-(3-fluoro-benzyl)-1,4,5,6,7,8-hexahydro-cycloheptapyrazole-3-carboxylic acid [(1R,2S)-2-hydroxy-indan-1-yl]-amide]
inhibition at 1 µM (CB1 receptor): 31%
CB2 receptor binding percent inhibition (CB2 receptor): 9%
